Results taken from patent US11230525B2, “Organic sulfur compound, method for preparing same, and pharmaceutical composition for preventing or treating cancer or an inflammatory disease, containing same as active ingredient” (SOOKMYUNG WOMENS UNIVERSITY INDUSTRY-ACADEMIC COOPERATION …, priority 2016, dated 2022).

Columns and labels:
[1] = system: renal cancer cell line (ACHN); assay: Cancer proliferation inhibitory activity (SRB, GI50), ACHN; type: cell-based; conditions: Homo sapiens, 48 hours
Source text: (§1) Particularly, the cancer proliferation inhibitory activity of the compounds of comparative examples (Ajoene and the compounds isosteric to Ajoene wherein R1 is allyl or benzyl) and the compounds of examples of the present invention (the compounds not isosteric to Ajoene wherein R^1 is phenyl) was investigated in human cancer cell lines (renal cancer cell line (ACHN), breast cancer cell line (MDA-MB-231), colorectal cancer cell line (HCT-15), prostate cancer cell line (PC-3), gastric cancer cell line (NUGC-3) and lung cancer cell line (NCl-H23)).
(§2) At this time, the cancer cell lines (renal cancer cell line (ACHN), breast cancer cell line (MDA-MB-231), colorectal cancer cell line (HCT-15), prostate cancer cell line (PC-3), gastric cancer cell line (NUGC-3) and lung cancer cell line (NCl-H23)) above were purchased from American Type Culture Collection (Manassas, Va., USA). Cells were cultured in RPMI 1640 supplemented with 10% fetal bovine serum, which were maintained 37° C. under 5% CO2 wet atmosphere. The cells were distributed in a 96-well plate, which was not treated (treated only with 0.1% DMSO) or treated with the compounds of examples of the present (0.1 μM to 10 μM). 48 hours later, the cells were fixed in 50% trichloroacetic acid, followed by staining with 1% acetic acid containing 0.4% sulphorodamine B dissolved therein. The non-conjugated dye was removed by washing with 1% acetic acid, and the protein conjugated dye was extracted with 10 mM Tris base (pH 10.5). Then, OD540 was measured with VersaMax microplate reader (Molecular devices, Sunnyvale, Calif., USA). GI50 was calculated by using GraphPad Prism software (GraphPad Software, Inc., San Diego, Calif., USA).
(§3) Based on the results obtained in experimental example 1-1 above, the derivatives wherein R^1 is phenyl were additionally synthesized. The cancer proliferation inhibitory activity of the derivatives was evaluated by the same manner as described in experimental example 1-1.

[2] = system: breast cancer cell line (MDA-MB-231); assay: Cancer proliferation inhibitory activity (SRB, GI50), MDA-MB-231; type: cell-based; conditions: Homo sapiens, 48 hours
Source text: as §1, §2, §3

[3] = system: prostate cancer cell line (PC-3); assay: Cancer proliferation inhibitory activity (SRB, GI50), PC-3; type: cell-based; conditions: Homo sapiens, 48 hours
Source text: as §1, §2, §3

[4] = system: gastric cancer cell line (NUGC-3); assay: Cancer proliferation inhibitory activity (SRB, GI50), NUGC-3; type: cell-based; conditions: Homo sapiens, 48 hours
Source text: as §1, §2, §3

[5] = system: colorectal cancer cell line (HCT-15); assay: Cancer proliferation inhibitory activity (SRB, GI50), HCT-15; type: cell-based; conditions: Homo sapiens, 48 hours
Source text: as §1, §2, §3

[6] = system: lung cancer cell line (NCl-H23); assay: Cancer proliferation inhibitory activity (SRB, GI50), NCI-H23; type: cell-based; conditions: Homo sapiens, 48 hours
Source text: as §1, §2, §3

[7] = molecular target: T1, HDAC 8 (Homo sapiens, UniProt Q9BY41); assay: HDAC enzyme fluorescence assay, HDAC 8; type: biochemical; design: Inhibitory activity (%) HDAC 8: concentration or dose not given beside the values; conditions: for Inhibitory activity (%) HDAC 8: (HDAC inhibitory activity of example compound/HDAC inhibitory activity of SAHA) × 100
T1 sequence (Q9BY41 1-377): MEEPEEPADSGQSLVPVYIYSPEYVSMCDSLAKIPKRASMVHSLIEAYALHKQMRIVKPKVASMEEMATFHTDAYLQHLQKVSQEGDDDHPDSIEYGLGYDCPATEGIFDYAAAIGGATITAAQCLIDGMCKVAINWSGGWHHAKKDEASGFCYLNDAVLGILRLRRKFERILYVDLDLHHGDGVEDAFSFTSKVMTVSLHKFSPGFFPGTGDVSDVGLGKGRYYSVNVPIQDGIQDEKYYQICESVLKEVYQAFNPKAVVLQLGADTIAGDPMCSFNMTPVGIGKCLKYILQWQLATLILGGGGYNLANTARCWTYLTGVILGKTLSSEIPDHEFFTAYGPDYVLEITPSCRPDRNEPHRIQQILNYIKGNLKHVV
Protocol: Particularly, HDAC enzyme analysis was performed based on a uniform fluorescence emission assay. First, the compounds of examples of the present invention or comparative example 1 were diluted at different concentrations, which were treated to the analysis buffer containing 25 mM HEPES (pH 8.0), 137 mM NaCl, 1 mM MgCl2 and 2.7 mM KCL, followed by culture of the recombinant HDAC enzyme. 10 minutes later, Boc-Lys(acetyl)-AMC, the fluorescence inducing substrate, was added thereto, followed by further culture at 37° C. At this time, the concentration of the fluorescence inducing substrate and the culture time were adjusted according to the isotypes of the HDAC enzyme. The reaction was terminated by treating trypsin at room temperature for 20 minutes. The fluorescence intensity was measured using a fluorescence analyzer at an excitation wavelength of 380 nm and an emission wavelength of 460 nm, respectively. The inhibition rate was calculated from the measured fluorescence intensity of each well with comparing to that of the control well. IC50 of the compound was calculated by analyzing the dose-reaction inhibition curve.
The HDAC 8 inhibitory activity was presented as percentage of relative activity by the inhibitory activity of SAHA (Vorinostat) used as a reference compound.

GI50 [1] [µM]	GI50 [2] [µM]	GI50 [3] [µM]	GI50 [4] [µM]	GI50 [5] [µM]	GI50 [6] [µM]	Inhibitory activity (%) HDAC 8 [7] [%]	IC50 ([7]; recombinant HDAC enzyme, Boc-Lys(acetyl)-AMC, read-out: IC50 HDAC 8) [µM]	Compound
3.23	2.14	3.02	2.36	2.43	3.58	52.9	0.29	CCCSS/C=C\C[S+]([O-])c1ccc(OC)cc1 (stereo not shown) [Example 30, (Z)-1-(3-(4-methoxyphenylsulfinyl)prop-1-enyl)-2-propyldisulfane]
3.75	4.19	5.17	5.48	3.32	3.09	106.1		COc1ccc([S+]([O-])C/C=C/SSCc2ccc(Cl)c(Cl)c2)cc1 (stereo not shown) [Example 37, (E)-1-(3,4-dichlorobenzyl)-2-(3-(4-methoxyphenylsulfinyl)prop-1-enyl)disulfane]
1.34	1.09	1.35	2.65	1.45	1.49	68.1		COc1ccc([S+]([O-])C/C=C\SSCc2ccc(F)cc2)cc1 (stereo not shown) [Example 34, (Z)-1-(4-fluorobenzyl)-2-(3-(4-methoxyphenylsulfinyl)prop-1-enyl)disulfane]
2.41	1.78	2.28	2.84	1.62	2.19	98.7		COc1ccc([S+]([O-])C/C=C\SSCc2ccc(Cl)cc2)cc1 (stereo not shown) [Example 36, (Z)-1-(4-chlorobenzyl)-2-(3-(4-methoxyphenylsulfinyl)prop-1-enyl)disulfane]
0.17	0.16	0.29	0.24	0.25	0.27	111.7		COc1ccc([S+]([O-])C/C=C/SSCc2ccc(F)cc2)cc1 (stereo not shown) [Example 33, (E)-1-(4-fluorobenzyl)-2-(3-(4-methoxyphenylsulfinyl)prop-1-enyl)disulfane]
3.86	5.62	4.38	4.62	6.61	3.91	39.8		C=CCSS/C=C/C[S+]([O-])c1ccc(OC)cc1 (stereo not shown) [Example 27, (E)-1-allyl-2-(3-(4-methoxyphenylsulfinyl)prop-1-enyl)disulfane]
1.65	2.2	2.41	2.04	1.48	1.41	69.9		CCCSS/C=C/C[S+]([O-])c1ccc(OC)cc1 (stereo not shown) [Example 29, (E)-1-(3-(4-methoxyphenylsulfinyl)prop-1-enyl)-2-propyldisulfane]

Second part, the compound before the results:

Compound	GI50 [1] [µM]	GI50 [2] [µM]	GI50 [3] [µM]	GI50 [4] [µM]	GI50 [5] [µM]	GI50 [6] [µM]	Inhibitory activity (%) HDAC 8 [7] [%]	IC50 ([7]; recombinant HDAC enzyme, Boc-Lys(acetyl)-AMC, read-out: IC50 HDAC 8) [µM]
COc1ccc(CSS/C=C/C[S+]([O-])c2ccccc2)cc1 (stereo not shown) [Example 9, (E)-1-(4-methoxybenzyl)-2-(3-(phenylsulfinyl)prop-1-enyl)disulfane]	2.94	1.54	2.72	1.43	3.03	1.45	48.7	
[O-][S+](C/C=C\SSCc1ccc(Cl)c(Cl)c1)c1ccccc1 (stereo not shown) [Example 14, (Z)-1-(3,4-dichlorobenzyl)-2-(3-(phenylsulfinyl)prop-1-enyl)disulfane]	7.68	4.78	4.55	8.51	> 10	7.35	146.4	
C=CCSS/C=C/C[S+]([O-])c1cccc(OC)c1 (stereo not shown) [Example 15, (E)-1-allyl-2-(3-(3-methoxyphenylsulfinyl)prop-1-enyl)disulfane]	2.56	4.51	3.02	2.95	2.58	3.42	84.6	
COc1cccc([S+]([O-])C/C=C\SSCc2ccc(F)cc2)c1 (stereo not shown) [Example 22, (Z)-1-(4-fluorobenzyl)-2-(3-(3-methoxyphenylsulfinyl)prop-1-enyl)disulfane]	3.85	4.41	3.04	3.67	3.01	2.71	122.9	
COc1cccc([S+]([O-])C/C=C/SSCc2ccc(Cl)cc2)c1 (stereo not shown) [Example 23, (E)-1-(4-chlorobenzyl)-2-(3-(3-methoxyphenylsulfinyl)prop-1-enyl)disulfane]	5.47	3.12	3.76	5.92	4.37	4.85	72.6	
COc1cccc([S+]([O-])C/C=C\SSCc2ccccc2)c1 (stereo not shown) [Example 20, (Z)-1-benzyl-2-(3-(3-methoxyphenylsulfinyl)prop-1-enyl)disulfane]	3.72	4.34	2.96	3.78	2.6	3.46	114.3	
[O-][S+](C/C=C/SSCc1ccccc1)c1ccccc1 (stereo not shown) [Example 5, (E)-1-benzyl-2-(3-(phenylsulfinyl)prop-1-enyl)disulfane]	5.75	6.27	3.19	3.71	3.97	2.98	88.6	
COc1cccc([S+]([O-])C/C=C/SSCc2ccc(F)cc2)c1 (stereo not shown) [Example 21, (E)-1-(4-fluorobenzyl)-2-(3-(3-methoxyphenylsulfinyl)prop-1-enyl)disulfane]	2.46	2.02	1.97	1.56	1.75	2.12	109.2	
[O-][S+](C/C=C/SSCc1ccc(F)cc1)c1ccccc1 (stereo not shown) [Example 7, (E)-1-(4-fluorobenzyl)-2-(3-(phenylsulfinyl)prop-1-enyl)disulfane]	7.11	3.24	3.89	6.84	10.4	7.69	37.1	
CCCSS/C=C/C[S+]([O-])c1ccccc1 (stereo not shown) [Example 3, (E)-1-(3-(phenylsulfinyl)prop-1-enyl)-2-propyldisulfane]	3.9	2.15	4.74	2.93	2.64	2.8	43.8	
[O-][S+](C/C=C\SSCc1ccc(Cl)cc1)c1ccccc1 (stereo not shown) [Example 12, (Z)-1-(4-chlorobenzyl)-2-(3-(phenylsulfinyl)prop-1-enyl)disulfane]	2.95	2.26	4.99	3.24	5.48	3.51	105.4	
